In patent publication US8614215B2, “Quinoxaline inhibitors of phosphoinositide-3-kinases (PI3Ks)” (Merck Serono SA, priority 2007, dated 2013):

System: Human recombinant GST-PI3K
Experiment: PI3K induced-lipid phosphorylation, neomycin-SPA scintillation proximity assay
Assay type: biochemical
Conditions: Human recombinant GST-PI3K, SPA
Excerpt: The efficacy of compounds of the invention in inhibiting the PI3K induced-lipid phosphorylation may be tested in the following binding assay. The assay combines the scintillation proximity assay technology (SPA, Amersham) with the capacity of neomycin (a polycationic antibiotic) to bind phospholipids with high affinity and specificity. The Scintillation Proximity Assay is based on the properties of weakly emitting isotopes (such as ^3H, ^125I, ^33P). Coating SPA beads with neomycin allows the detection of phosphorylated lipid substrates after incubation with recombinant PI3K and radioactive ATP in the same well, by capturing the radioactive phospholipids to the SPA beads through their specific binding to neomycin.
To a 96 wells MTP containing 10 μL of the test compound of Formula (I) (solubilized in 10% DMSO; […]), the following assay components are added: 1) 10 μL of lipid micelles 2) 20 μL of Kinase buffer ([^33P]γATP162 μM/300 nCi, MgCl2 2.5 mM, DTT 2.5 mM, Na3VO4 25 uM in Hepes 40 mM, pH 7.4) and 3) 10 μL (100 ng) of Human recombinant GST-PI3K (in Hepes 40 mM, pH 7.4, ethylenglycol 4%). After incubation at room temperature for 120 minutes, with gentle agitation, the reaction is stopped by addition of 200 μL of a solution containing 250 μg of neomycin-coated PVT SPA beads, ATP 60 mM and EDTA 6.2 mM in PBS. The assay is further incubated at room temperature for 60 minutes with gentle agitation to allow binding of phospholipids to neomycin-SPA beads. After precipitation of the neomycin-coated PVT SPA beads for 5 minutes at 1500×g, radioactive PtdIns(3)P is quantified by scintillation counting in a Wallac MicroBeta™ plate counter.
The values indicated in Table I below refer to the IC50 (μM) with respect to PI3K, i.e. the amount necessary to achieve 50% inhibition of said target. Said values show a considerable inhibitory potency of quinoxaline compounds with regard to PI3K.

Row | SMILES | IC50 [nM]
1 | COc1ccc(CCS(C)(=O)=O)c(Nc2nc3ccccc3nc2NS(C)(=O)=O)c1 [Example 44, N-[3-({5-Methoxy-2-[2-(methylsulfonyl)ethyl]phenyl}amino)quinoxalin-2-yl]methanesulfonamide] | 200
2 | COc1ccc(CCO)c(Nc2nc3ccccc3nc2NS(=O)(=O)C2CCCCC2)c1 [Example 45, N-(3-{[2-(2-Hydroxyethyl)-5-methoxyphenyl]amino}quinoxalin-2-yl) cyclohexanesulfonamide] | 57
3 | COc1ccc(CCCO)c(Nc2nc3ccccc3nc2NS(C)(=O)=O)c1 [Example 46, N-(3-{[2-(3-Hydroxypropyl)-5-methoxyphenyl]amino}quinoxalin-2-yl)methanesulfonamide] | 64
4 | COc1ccc(CCCO)c(Nc2nc3ccccc3nc2NS(=O)(=O)c2cn(C)c(CN(C)C)n2)c1 [Example 47, 2-[(Dimethylamino)methyl]-N-(3-{[2-(3-hydroxypropyl)-5-methoxyphenyl]amino}quinoxalin-2-yl)-1-methyl-1H-imidazole-4-sulfonamide] | 28
5 | CCS(=O)(=O)Nc1nc2ccccc2nc1Nc1cc(OC)ccc1CCCO [Example 48, N-(3-{[2-(3-Hydroxypropyl)-5-methoxyphenyl]amino}quinoxalin-2-yl)ethanesulfonamide] | 59
6 | CCCS(=O)(=O)Nc1nc2ccccc2nc1Nc1cc(OC)ccc1CCCO [Example 49, N-(3-{[2-(3-Hydroxypropyl)-5-methoxyphenyl]amino}quinoxalin-2-yl)propane-1-sulfonamide] | 49
7 | COc1ccc(CCCO)c(Nc2nc3ccccc3nc2NS(=O)(=O)C(C)C)c1 [Example 50, N-(3-{[2-(3-Hydroxyproxyl)-5-methoxypheyl]amino}quinoxalin-2-yl)propane-2-sulfonamide] | 72
8 | CCS(=O)(=O)Nc1nc2ccccc2nc1Nc1cc(OC)ccc1CCS(C)(=O)=O [Example 51, N-[3-({5-Methoxy-2-[2-(methylsulfonyl)ethyl]phenyl}amino)quinoxalin-2-yl]ethanesulfonamide] | 88
9 | COc1ccc(CCS(C)(=O)=O)c(Nc2nc3ccccc3nc2NS(=O)(=O)C(C)C)c1 [Example 52, N-[3-({5-Methoxy-2-[2-(methylsulfonyl)ethyl]phenyl}amino)quinoxalin-2-yl]propane-2-sulfonamide] | 160
10 | CCCS(=O)(=O)Nc1nc2ccccc2nc1Nc1cc(OC)ccc1CCS(C)(=O)=O [Example 53, N-[3-({5-Methoxy-2-[2-(methylsulfonyl)ethyl]phenyl}amino)quinoxalin-2-yl]propane-1-sulfonamide] | 87
11 | COc1ccc(CCS(C)(=O)=O)c(Nc2nc3ccccc3nc2NS(=O)(=O)c2c(C)noc2C)c1 [Example 54, N-[3-({5-Methoxy-2-[2-(methylsulfonyl)ethyl]phenyl}amino)quinoxalin-2-yl]-3,5-dimethylisoxazole-4-sulfonamide] | 190
12 | COc1ccc(CCS(C)(=O)=O)c(Nc2nc3ccccc3nc2NS(=O)(=O)c2ccccc2)c1 [Example 55, N-[3-({5-Methoxy-2-[2-(methylsulfonyl)ethyl]phenyl}amino)quinoxalin-2-yl]benzenesulfonamide] | 42
13 | COc1ccc(CCO)c(Nc2nc3ccccc3nc2NS(=O)(=O)C2CCS(=O)(=O)C2)c1 (centres unmarked) [Example 56] | 86
14 | COc1ccc(CCS(C)(=O)=O)c(Nc2nc3ccccc3nc2NS(=O)(=O)CCCSC)c1 [Example 57, N-[3-({5-Methoxy-2-[2-(methylsulfonyl)ethyl]phenyl}amino)quinoxalin-2-yl]-3-(methylthio)propane-1-sulfonamide] | 140
15 | COc1ccc(CCO)c(Nc2nc3ccccc3nc2NS(=O)(=O)CCCSC)c1 [Example 58, N-(3-{[2-(2-Hydroxyethyl)-5-methoxyphenyl]amino}quinoxalin-2-yl)-3-(methylthio)propane-1-sulfonamide] | 75
16 | COc1ccc(CCS(C)(=O)=O)c(Nc2nc3ccccc3nc2NS(=O)(=O)CCCS(C)(=O)=O)c1 [Example 59, N-[3-({5-Methoxy-2-[2-(methylsulfonyl)ethyl]phenyl}amino)quinoxalin-2-yl]-3-(methylsulfonyl)propane-1-sulfonamide] | 350

Row | SMILES | IC50 [nM]
17 | COc1ccc(CCCO)c(Nc2nc3ccccc3nc2NS(=O)(=O)CCCS(C)(=O)=O)c1 [Example 60, N-(3-{[2-(3-Hydroxypropyl)-5-methoxyphenyl]amino}quinoxalin-2-yl)-3-(methylsulfonyl)propane-1-sulfonamide] | 120
18 | COc1ccc(CCO)c(Nc2nc3ccccc3nc2NS(=O)(=O)CCCS(C)(=O)=O)c1 [Example 61, N-(3-{[2-(2-Hydroxyethyl)-5-methoxyphenyl]amino}quinoxalin-2-yl)-3-(methylsulfonyl)propane-1-sulfonamide] | 120
19 | COCCc1ccc(OC)cc1Nc1nc2ccccc2nc1NS(=O)(=O)c1cn(C)cn1 [Example 62, N-(3-{[5-Methoxy-2-(2-methoxyethyl)phenyl]amino}quinoxalin-2-yl)-1-methyl-1H-imidazole-4-sulfonamide] | 83
20 | COc1ccc(CCCO)c(Nc2nc3ccccc3nc2NS(=O)(=O)C2CCS(=O)(=O)C2)c1 (centres unmarked) [Example 63, N-(3-{[2-(3-Hydroxypropyl)-5-methoxyphenyl]amino}quinoxalin-2-yl)tetrahydrothiophene-3-sulfonamide 1,1-dioxide] | 130
21 | COc1ccc(S(=O)(=O)NCCO)c(Nc2nc3ccccc3nc2NS(=O)(=O)CCCS(C)(=O)=O)c1 [Example 64, N-(2-Hydroxyethyl)-4-methoxy-2-{[3-({[3-(methylsulfonyl)propyl]sulfonyl}amino)quinoxalin-2-yl]amino}benzenesulfonamide] | 300
22 | COc1ccc(CCS(C)(=O)=O)c(Nc2nc3ccccc3nc2NS(=O)(=O)c2cn(C)c(CN(C)C)n2)c1 [Example 65, 2-[(Dimethylamino)methyl]-N-[3-({5-methoxy-2-[2-(methylsulfonyl)ethyl]phenyl}amino)quinoxalin-2-yl]-1-methyl-1H-imidazole-4-sulfonamide] | 87
23 | COc1ccc(CCCO)c(Nc2nc3ccccc3nc2NS(=O)(=O)C2CCN(C(=O)OCc3ccccc3)CC2)c1 [Example 66, Benzyl 4-{[(3-{[2-(3-hydroxypropyl)-5-methoxyphenyl]amino}quinoxalin-2-yl)amino]sulfonyl}piperidine-1-carboxylate] | 720
24 | COc1cc(Nc2nc3ccccc3nc2NS(=O)(=O)c2cn(C)cn2)cc(C(=O)NCCO)c1 [Example 67, N-(2-Hydroxyethyl)-3-methoxy-5-[(3-{[(1-methyl-1H-imidazol-4-yl)sulfonyl]amino}quinoxalin-2-yl)amino]benzamide] | 100
25 | COc1ccc(CCCS(C)(=O)=O)c(Nc2nc3ccccc3nc2NS(=O)(=O)c2cn(C)cn2)c1 [Example 68, N-[3-({5-Methoxy-2-[3-(methylsulfonyl)propyl]phenyl}amino)quinoxalin-2-yl]-1-methyl-1H-imidazole-4-sulfonamide] | 50
26 | COc1ccc(CCO)c(Nc2nc3ccccc3nc2NS(=O)(=O)c2ccc(NC(=O)CO)cc2)c1 [Example 69, 2-Hydroxy-N-(4-{[(3-{[2-(2-hydroxyethyl)-5-methoxyphenyl]amino}quinoxalin-2-yl)amino]sulfonyl}phenyl)acetamide] | 65
27 | COc1ccc(CCO)c(Nc2nc3ccccc3nc2NS(=O)(=O)c2ccc(NC(=O)CN(C)C)cc2)c1 [Example 70, 2-Dimethylamino-N-(4-{[(3-{[2-(2-hydroxyethyl)-5-methoxyphenyl]amino}quinoxalin-2-yl)]sulfamoyl}phenyl)-acetamide] | 27
28 | COc1ccc(CCCO)c(Nc2nc3ccccc3nc2NS(=O)(=O)c2ccc(NC(=O)CN(C)C)cc2)c1 [Example 71, 2-Dimethylamino-N-(4-{[(3-{[2-(3-hydroxypropyl)-5-methoxyphenyl]amino}quinoxalin-2-yl)]sulfamoyl}phenyl)-acetamide] | 32
29 | COc1ccc(CCCO)c(Nc2nc3ccccc3nc2NS(=O)(=O)c2cccc(NC(=O)COCc3ccccc3)c2)c1 [Example 72] | 480
30 | COc1cc(Nc2nc3ccccc3nc2NS(=O)(=O)CCCS(C)(=O)=O)cc(C(=O)NCCO)c1 [Example 73, N-(2-Hydroxyethyl)-3-methoxy-5-{[3-({[3-(methylsulfonyl)propyl]sulfonyl}amino)quinoxalin-2-yl]amino}benzamide] | 350
31 | COc1ccc(CCCO)c(Nc2nc3ccccc3nc2NS(=O)(=O)c2cn(C)c(CO)n2)c1 [Example 74, 2-(Hydroxymethyl)-N-(3-{[2-(3-hydroxypropyl)-5-methoxyphenyl]amino}quinoxalin-2-yl)-1-methyl-1H-imidazole-4-sulfonamide] | 84
32 | COc1cc(Nc2nc3ccccc3nc2NS(=O)(=O)c2cn(C)cn2)cc(C(=O)N(C)C)c1 [Example 75, 3-Methoxy-N,N-dimethyl-5-[(3-{[(1-methyl-1H-imidazol-4-yl)sulfonyl]amino}quinoxalin-2-yl)amino]benzamide] | 760
